Data taken from patent US20250230138A1, “COMPOUNDS HAVING A T-STRUCTURE FORMED BY AT LEAST FOUR CYCLES FOR USE IN THE TREATMENT OF CANCER AND OTHER INDICATIONS” (TheRas, Inc., priority 2022, published 2025).
Where two headings read alike, the source gives them in different places.

Tests used:
pAKT in BT474 cells = experiment: Cell-based pAKT HTRF assay in BT474 cells; settings: BT474 cells, 4 hr incubation, read-out: pAKT inhibition IC50 in BT474 cells
Method in brief: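 Compound titration: 3 μM downward in 3-fold steps, nine points, 4 hr on cells. Detection: lysis, then d2 plus Eu Cryptate antibody mix, room-temperature incubation of 4–24 h, and time-resolved fluorescence read at 615 nm.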

[1] = target: Cys242 in human PIK3CA (157-299) (Homo sapiens (Human), UniProt P42336); experiment: Covalent modification assay using MALDI-TOF MS; format: biochemical; settings: 4 h reaction time point
Method in brief: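 PIK3CA (157-299) at 3.33 μM or 1 μM in 20 mM HEPES, 150 mM NaCl, 2 mM MgCl2, pH 7.3 was incubated with compound (from 10 mM DMSO stocks) in the dark at room temperature for 15 min, 30 min, 2 h or 4 h. Linear-mode MALDI-TOF peak heights gave percent modification.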

[2] = 3.33 μM protein target, 1:7.5 protein to compound ratio (compounds 1-852)
[3] = 1 μM protein target, 1:5 protein to compound ratio (compounds 853-1279)
[4] = Homo sapiens, BT-474, Compounds 10-999

Chain of Cys242 in human PIK3CA (157-299) (P42336 157-299): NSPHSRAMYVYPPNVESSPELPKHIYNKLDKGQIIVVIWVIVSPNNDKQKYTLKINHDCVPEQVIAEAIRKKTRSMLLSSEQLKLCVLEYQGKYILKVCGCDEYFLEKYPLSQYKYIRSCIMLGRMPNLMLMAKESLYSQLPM

Row | Compound | IC50 (pAKT in BT474 cells; Compounds 10-999) [µM] | % of modification [1, 2] | % of modification [1, 3] | also measured
1 | C=CC(=O)N1Cc2cc(-c3nc(-c4ccc5nn(C)cc5c4)c4ccsc4c3-c3c(F)cc(F)cc3OC[C@@H](C)O)nn2[C@@H](C)C1 [Compound 571, 1-((S)-2-((R)-7-(2,4-difluoro-6-((R)-2-hydroxypropoxy)phenyl)-4-(2-methyl-2H-indazol-5-yl)thieno[3,2-c]pyridin-6-yl)-7-methyl-6,7-dihydropyrazolo[1,5-a]pyrazin-5(4H)-yl)prop-2-en-1-one] | < 0.1 | D (percent of modification <25%) | – | –
2 | C=CC(=O)N1CCc2nc(-c3nc(N4CCN(C(C)C)C(=O)C4)c4ccsc4c3-c3ccc(F)cc3OCCOC)sc2C1 [Compound 176] | 0.1 to 1 | A (percent of modification of PIK3CA protein ≥75%) | – | –
3 | C=CC(=O)N1CCn2nc(-c3nc(-c4ccc5cnncc5c4)c4ccsc4c3-c3c(F)cc(F)cc3OCCO)cc2[C@@H]1C [Compound 672] | < 0.1 | A (percent of modification of PIK3CA protein ≥75%) | – | –
4 | C=CC(=O)N1Cc2cc(-c3nc(N4CCc5c(cnn5C)C4)c4ccsc4c3-c3c(F)cc(F)cc3OCCOC)nn2CC1C (centres unmarked) [Compound 949] | < 0.1 | – | A (percent of modification of PIK3CA protein ≥75%) | –
5 | C=CC(=O)N1Cc2cc(-c3nc(-c4cnn(C)c4)c4ccsc4c3-c3ccc(F)cc3OC(C)C)nn2[C@H](C)C1 [Compound 357, 1-((7R)-2-(7-(4-fluoro-2-isopropoxyphenyl)-4-(1-methyl-1H-pyrazol-4-yl)thieno[3,2-c]pyridin-6-yl)-7-methyl-6,7-dihydropyrazolo[1,5-a]pyrazin-5(4H)-yl)prop-2-en-1-one] | – | A (percent of modification of PIK3CA protein ≥75%) | – | IC50 (pAKT in BT474 cells; [4]): < 0.1 µM
6 | C=CC(=O)N1CCc2ccc(-c3nc(-c4cn(C)cn4)c4ccsc4c3-c3c(F)cc(F)cc3OCCO)cc2C1 (single isomer, unassigned) [Compound 1001] | – | – | D (percent of modification <25%) | IC50 (pAKT in BT474 cells; Compounds 1000-1279): 0.1 to 1 µM
7 | C=CC(=O)N1CCn2nc(-c3nc(-c4ccnc(N(C)C)c4)c4ccsc4c3-c3c(F)cc(F)cc3OCCOC)cc2[C@@H]1C [Compound 965] | 0.1 to 1 | – | A (percent of modification of PIK3CA protein ≥75%) | –
8 | C=CC(=O)N1Cc2cc(-c3nc(C45CC(CN(C)C)(C4)C5)c4ccsc4c3-c3c(F)cc(F)cc3OCCOC)nn2C[C@H]1C [Compound 1168, 1-((6R)-2-(7-(2,4-difluoro-6-(2-methoxyethoxy)phenyl)-4-(3-((dimethylamino)methyl)bicyclo[1.1.1]pentan-1-yl)thieno[3,2-c]pyridin-6-yl)-6-methyl-6,7-dihydropyrazolo[1,5-a]pyrazin-5(4H)-yl)prop-2-en-1-one] | – | – | B (50%<percent of modification <75%) | IC50 (pAKT in BT474 cells; Homo sapiens, BT-474, Compounds 1000-1279): 0.1 to 1 µM
9 | C=CC(=O)N1CCn2nc(-c3nc(-c4cccc(OCCN(C)C)c4)c4ccsc4c3-c3c(F)cc(F)cc3OCCOC)cc2C1C (centres unmarked) [Compound 1046] | – | – | A (percent of modification of PIK3CA protein ≥75%) | IC50 (pAKT in BT474 cells; Compounds 1000-1279): < 0.1 µM
10 | C=CC(=O)N1Cc2cc(-c3nc(-c4ccc5cnncc5c4)c4ccsc4c3-c3c(F)cc(F)cc3OCCO)nn2CC1C (centres unmarked) [Compound 853] | < 0.1 | – | A (percent of modification of PIK3CA protein ≥75%) | –
11 | C=CC(=O)N1CCc2nc(-c3nc(-c4ccc5c(c4)CC(N)C5)c4ccsc4c3-c3ccc(F)cc3OCCOC)sc2C1 (centres unmarked) [Compound 156] | < 0.1 | A (percent of modification of PIK3CA protein ≥75%) | – | –
12 | C=CC(=O)N1CCn2nc(-c3nc(-c4ccc5c(c4)CN(C)C(=O)C54CC4)c4ccsc4c3-c3c(F)cc(F)cc3OCCO)cc2[C@H]1C [Compound 1133] | – | – | A (percent of modification of PIK3CA protein ≥75%) | IC50 (pAKT in BT474 cells; Compounds 1000-1279): < 0.1 µM
13 | C=CC(=O)N1CCn2nc(-c3nc(-c4cccc(CN(C)C)c4)c4ccsc4c3-c3c(F)cc(F)cc3OCCOC)cc2C1C (centres unmarked) [Compound 1061] | – | – | A (percent of modification of PIK3CA protein ≥75%) | IC50 (pAKT in BT474 cells; Compounds 1000-1279): < 0.1 µM
14 | C=CC(=O)N1CCn2nc(-c3nc(-c4ccc5c(cnn5C)c4)c4ccsc4c3-c3c(F)cc(F)cc3OC)cc2C1C (centres unmarked) [Compound 1111] | – | – | C (25%≤percent of modification <50%) | IC50 (pAKT in BT474 cells; Compounds 1000-1279): 0.1 to 1 µM
15 | C=CC(=O)N1CCc2ccc(-c3nc(-c4ccc5c(c4)CNC(=O)C5)c4ccsc4c3-c3ccc(F)cc3OC)cc2C1 [Compound 80] | 0.1 to 1 | A (percent of modification of PIK3CA protein ≥75%) | – | –
16 | C=CC(=O)N1CCn2nc(-c3nc(-c4ccc5c(c4)CCN(C)C5=O)c4ccsc4c3-c3c(F)cc(F)cc3OCCO)cc2C1C (centres unmarked) [Compound 995] | < 0.1 | – | A (percent of modification of PIK3CA protein ≥75%) | –
17 | C=C(F)C(=O)N1CCn2nc(-c3nc(-c4ccc5c(c4)CCNC5=O)c4ccsc4c3-c3ccc(F)cc3OC(C)C)cc2C1 [Compound 258, 6-[7-(4-fluoro-2-isopropoxy-phenyl)-6-[5-(2-fluoroprop-2-enoyl)-6,7-dihydro-4H-pyrazolo[1,5-a]pyrazin-2-yl]thieno[3,2-c]pyridin-4-yl]-3,4-dihydro-2H-isoquinolin-1-one] | – | B (50%<percent of modification <75%) | – | IC50 (pAKT in BT474 cells; [4]): < 0.1 µM
18 | C=CC(=O)N1Cc2cc(-c3nc(-c4ccc5c(c4)C(=O)NC5)c4ccsc4c3-c3c(F)cc(F)cc3OCCOC)nn2CC1C (centres unmarked) [Compound 768] | < 0.1 | A (percent of modification of PIK3CA protein ≥75%) | – | –
19 | C=CC(=O)N1CC(n2cc(-c3nc(-c4ccc(S(N)(=O)=O)cc4)c4ccsc4c3-c3ccc(F)cc3OCCOC)cn2)C1 [Compound 238] | < 0.1 | A (percent of modification of PIK3CA protein ≥75%) | – | –
20 | C=CC(=O)N1CCn2nc(-c3nc(-c4ccc5nn(C)cc5c4)c4ccsc4c3-c3c(F)cc(F)cc3OCCO)cc2[C@@H]1C [Compound 644] | < 0.1 | A (percent of modification of PIK3CA protein ≥75%) | – | –
21 | C=CC(=O)N1CCn2nc(-c3nc(-c4ccc5c(c4)CCN(C)CC5)c4c(c3-c3c(F)cc(F)cc3OCCOC)CCC4)cc2[C@H]1C [Compound 1223] | – | – | A (percent of modification of PIK3CA protein ≥75%) | IC50 (pAKT in BT474 cells; Compounds 1000-1279): < 0.1 µM
22 | C=CC(=O)N1CCc2oc(-c3nc(-c4ccc5c(c4)CCNC5)c4ccsc4c3-c3ccc(F)cc3OC)nc2C1 [Compound 112, 1-[2-[7-(4-fluoro-2-methoxy-phenyl)-4-(1,2,3,4-tetrahydroisoquinolin-6-yl)thieno[3,2-c]pyridin-6-yl]-6,7-dihydro-4H-oxazolo[4,5-c]pyridin-5-yl]prop-2-en-1-one] | – | A (percent of modification of PIK3CA protein ≥75%) | – | IC50 (pAKT in BT474 cells; [4]): 0.1 to 1 µM
23 | C=CC(=O)N1CCn2nc(-c3nc(-c4ccc5nncn5c4)c4ccsc4c3-c3c(F)cc(F)cc3OCCO)cc2[C@H]1C [Compound 892] | < 0.1 | – | A (percent of modification of PIK3CA protein ≥75%) | –
24 | C=CC(=O)N1CCn2nc(-c3nc(-c4ccc5c(c4)CCC5N(C)C)c4ccsc4c3-c3c(F)cc(F)cc3OCCOC)cc2C1C (centres unmarked) [Compound 1155] | – | – | A (percent of modification of PIK3CA protein ≥75%) | IC50 (pAKT in BT474 cells; Compounds 1000-1279): < 0.1 µM
25 | C=CC(=O)N1CCn2cc(-c3nc(-c4ccc(=O)n(C)c4)c4ccsc4c3-c3ccc(F)cc3OC(C)C)nc2C1 [Compound 272] | < 0.1 | A (percent of modification of PIK3CA protein ≥75%) | – | –
